Source: ChEMBL document CHEMBL1201862, “PubChem BioAssay data set” (2004)
The source made the active and inactive calls. Rule as the data show it, for most assays here: actives have a measured EC50 and inactives only a lower limit.

What was measured:
[1] = NIH-3T3 fibroblast cytotoxicity, dose response, cytotoxicity control, cell-based, fluorescence, Alamar Blue, secondary assay (AID 2327); assay type: functional;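 also: NIH-3T3 mouse fibroblasts cultured with fluconazole at 8 µg/mL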
[2] = molecular target: T1, Histone-lysine N-methyltransferase NSD2 (Homo sapiens, UniProt O96028); assay type: biochemical
T1 sequence (O96028 whole entry): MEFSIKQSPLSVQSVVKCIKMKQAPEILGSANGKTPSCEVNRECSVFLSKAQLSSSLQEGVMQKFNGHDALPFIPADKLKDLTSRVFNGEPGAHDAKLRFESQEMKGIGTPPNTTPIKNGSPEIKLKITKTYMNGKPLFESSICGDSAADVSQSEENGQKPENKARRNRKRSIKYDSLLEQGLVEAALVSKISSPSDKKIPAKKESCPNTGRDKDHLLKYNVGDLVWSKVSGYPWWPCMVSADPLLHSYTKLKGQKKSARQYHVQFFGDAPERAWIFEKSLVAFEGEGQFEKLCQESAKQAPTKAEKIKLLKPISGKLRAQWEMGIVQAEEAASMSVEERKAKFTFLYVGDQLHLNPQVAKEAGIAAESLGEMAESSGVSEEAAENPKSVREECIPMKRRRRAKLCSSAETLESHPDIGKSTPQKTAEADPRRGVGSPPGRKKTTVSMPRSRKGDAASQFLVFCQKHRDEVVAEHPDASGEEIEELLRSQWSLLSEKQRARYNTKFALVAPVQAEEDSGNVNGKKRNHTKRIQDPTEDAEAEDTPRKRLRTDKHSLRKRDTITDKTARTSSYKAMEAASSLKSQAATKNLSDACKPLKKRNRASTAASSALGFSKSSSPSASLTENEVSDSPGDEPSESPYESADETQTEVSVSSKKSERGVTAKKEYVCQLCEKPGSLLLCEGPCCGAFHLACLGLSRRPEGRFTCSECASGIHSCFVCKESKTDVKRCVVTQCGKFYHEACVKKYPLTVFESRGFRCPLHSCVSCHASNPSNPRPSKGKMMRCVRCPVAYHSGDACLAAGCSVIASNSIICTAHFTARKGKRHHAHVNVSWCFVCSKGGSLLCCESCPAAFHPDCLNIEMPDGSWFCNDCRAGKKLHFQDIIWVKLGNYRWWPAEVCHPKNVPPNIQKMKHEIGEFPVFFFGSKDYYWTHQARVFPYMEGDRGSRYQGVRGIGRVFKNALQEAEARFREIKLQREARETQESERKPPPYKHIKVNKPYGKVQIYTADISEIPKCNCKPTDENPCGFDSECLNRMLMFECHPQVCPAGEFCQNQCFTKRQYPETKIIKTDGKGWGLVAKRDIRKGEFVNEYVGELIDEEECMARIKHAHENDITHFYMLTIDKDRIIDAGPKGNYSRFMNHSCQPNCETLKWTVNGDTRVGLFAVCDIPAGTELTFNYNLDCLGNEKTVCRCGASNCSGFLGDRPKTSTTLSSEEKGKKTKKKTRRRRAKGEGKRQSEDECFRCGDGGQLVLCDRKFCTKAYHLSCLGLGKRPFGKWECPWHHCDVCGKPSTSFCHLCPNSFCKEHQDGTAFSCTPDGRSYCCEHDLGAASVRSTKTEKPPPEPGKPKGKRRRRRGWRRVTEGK

Protein RecA = molecular target: T2, Protein RecA (Mycobacterium tuberculosis, UniProt P9WHJ3); assay: Fluorescence Cell-Free Homogeneous Dose Retest to Identify Inhibitors of RecA-Intein Splicing Activity. [Related pubchem assays (depositor defined):AID2097, AID2223, AID489010, AID492950]; assay type: functional
T2 sequence (P9WHJ3 whole entry): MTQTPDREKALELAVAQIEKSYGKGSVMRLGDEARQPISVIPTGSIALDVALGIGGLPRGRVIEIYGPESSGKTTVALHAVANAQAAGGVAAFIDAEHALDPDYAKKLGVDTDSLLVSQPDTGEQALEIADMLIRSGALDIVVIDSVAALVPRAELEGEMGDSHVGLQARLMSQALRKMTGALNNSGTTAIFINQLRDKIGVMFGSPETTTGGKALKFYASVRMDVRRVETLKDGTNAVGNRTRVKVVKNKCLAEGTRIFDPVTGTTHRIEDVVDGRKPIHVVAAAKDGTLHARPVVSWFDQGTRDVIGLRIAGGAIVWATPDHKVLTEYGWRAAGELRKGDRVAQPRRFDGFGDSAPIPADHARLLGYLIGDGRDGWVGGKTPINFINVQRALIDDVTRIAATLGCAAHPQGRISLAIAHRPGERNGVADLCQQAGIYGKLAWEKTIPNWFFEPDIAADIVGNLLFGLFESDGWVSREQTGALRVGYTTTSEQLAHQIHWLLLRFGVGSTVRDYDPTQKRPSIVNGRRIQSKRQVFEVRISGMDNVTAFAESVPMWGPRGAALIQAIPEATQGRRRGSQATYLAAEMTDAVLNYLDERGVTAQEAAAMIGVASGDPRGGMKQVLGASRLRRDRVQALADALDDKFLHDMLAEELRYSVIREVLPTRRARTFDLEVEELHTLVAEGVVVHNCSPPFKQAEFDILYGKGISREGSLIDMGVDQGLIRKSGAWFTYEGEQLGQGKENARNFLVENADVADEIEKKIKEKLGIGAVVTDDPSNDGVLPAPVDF

O=C(Nc1cccc(NC(=O)c2ccccc2Cl)c1)c1ccc([N+](=O)[O-])o1
EC50 [1]: 12.1 µM (inconclusive)

COc1ccc(CC2=CC(=O)c3ccccc3C2=O)cc1
AC50 [2]: 10.5 µM (active) | EC50 (Protein RecA): 3.37 µM (active)

c1coc(-c2nnc(-c3ccco3)nn2)c1
AC50 [2]: 5.23 µM (active) | EC50 (Protein RecA): 7.01 µM (active)

Cn1c(O)c(/C=N/NC(=O)c2cc3ccccc3cc2O)c2ccccc21
EC50 [1]: > 160 µM (inconclusive)
